Reference: PMC7998250, “Temperate Zone Plant Natural Products—A Novel Resource for Activity against Tropical Parasitic Diseases” (Pharmaceuticals, 2021)
Like-named read-outs stand apart in the source and are kept apart here.

What was measured:
[1] = system: 700022-resistant line of L. mexicana (r22) axenic amastigotes; assay: EC50 in 700022-resistant L. mexicana (r22) axenic amastigotes; assay type: cell-based, Leishmania mexicana; settings: for r22 28 weeks RI (resistance index, EC50 in r22/EC50 in WT): 28 weeks of 700022 selection pressure; for EC50: Leishmania mexicana, read-out: r22 28 weeks EC50, r22 after 28 weeks of 700022 selection pressure
Experimental: A 700022-resistant line of L. mexicana (r22) was generated using a previously reported method (Figure S3). […] All leishmanicidal sterols identified were assayed against r22 after 8 weeks of 700022 pressure and cross-resistance was found against all four compounds, each with a similar resistance index of between 4–5 (Figure 6c). Following 28 weeks of selection, the morphology of the r22 promastigotes was compared to that of WT (Figure 6d). […] The body area of both promastigotes and amastigotes was also assessed, noting a small (c 20%) decrease in the body area of r22 parasites compared to WT strains (Figure S3).
Figure 6 Comparison between wildtype and 700022-resistant (r22) L. mexicana cell lines. Log concentration versus normalised (compared to untreated control) growth curves for wildtype (WT) and corresponding 700022-selected (r22) L. mexicana (a) promastigotes and (b) axenic amastigotes. Error bars represent upper and lower limits of the StDev (n = 9). […] The resistance index (EC50 in r22/EC50 in WT) are shown for each compound. (d) Scanning electron micrographs of WT and r22 promastigotes illustrating the shortened flagellum in r22 parasites. (e) Analysis of flagellum length in WT and r22 promastigotes (n = 287 of each strain) reported using a box and whisker plot (boxes represents the 25–75th percent distribution with the mean as a horizontal line, whiskers represent the distribution of all values) with a statistically significant difference (Mann–Whitney U test, p-value < 2.2 × 10^−16). […] Error bars represent upper and lower limits of the StDev (n = 9). […] The resistance index (EC50 in r22/EC50 in WT) are shown for each compound. TEXT PRINTED IN THE PICTURE: (c) 700022: 4.1 | (c) 700107: 4.1 | (c) 700136: 5.3 | (c) 700240: 5.3 | (f) 700022: 42.1 | (f) Milt: 17.9 | (f) Pent: 0.75 | (f) AmpB: 1.22 DOUBTS OF THE COPYIST ABOUT THIS PICTURE: Panels c and f: the numbers printed above the bar pairs have no measure or unit printed with them in the picture.
L. mexicana parasites were grown in increasing concentrations of 700022 in a stepwise manner, as previously described. […] A dose response assay of the newly selected promastigotes was completed as stated above, with the exception of the seeding density of 1 × 10^5 cells/mL. At this point, the drug pressure was increased to the concentration of the new EC50 value.

[2] = system: L. mexicana axenic amastigotes; assay: Concentration-response EC50, L. mexicana axenic amastigotes (WT); assay type: cell-based, Leishmania mexicana; settings: Leishmania mexicana
[3] = system: T. brucei bloodstream form; assay: Initial screen, T. brucei bloodstream form, Alamar Blue; assay type: cell-based, Trypanosoma brucei brucei; settings: initial screen; for activity at 2 µM: Trypanosoma brucei
Experimental: (§1) 634 compounds from the PhytoQuest Phytopure temperate plant natural product library were screened for growth inhibitory activity against L. mexicana axenic amastigotes, T. brucei bloodstream form, intraerythrocytic asexual P. falciparum (at 2 μM) and T. evansi bloodstream form parasites (at 1 μM). […] Our initial hits were defined as reducing growth of the parasite by ≥50%.
(§2) L. mexicana strain MNYC/BZ/62/M379 and L. donovani strain LdBOB (a clonal line from strain MHOM/SD/62/1S-CL2) were maintained in vitro in the procyclic promastigote stage. Parasites were cultivated at 26 °C in Schneider’s medium (Gibco) pH 7.0 containing 10% FBS, 100 U/mL penicillin (Lonza) and 100 μg/mL streptomycin (Lonza) as previously described. Differentiation into axenic amastigotes was performed as described previously. Briefly, axenic amastigotes were cultivated at 32 °C in Schneider’s medium pH 5.5 containing 10% FBS, 100 U/mL penicillin (Lonza) and 100 μg/mL streptomycin (Lonza). Bloodstream form T. brucei brucei strain Lister 427 and T. evansi strain Antat 3/3 [59] were maintained in vitro at 37 °C with 5% (v/v) CO2 in HMI-11 medium supplemented with 10% FBS, as described elsewhere. Intraerythrocytic cultures of P. falciparum Dd2^Luc strain [62] were maintained at 37 °C in a 1% O2:3% CO2:96% N2 atmosphere in RPMI-1640 containing 37.5 mM HEPES, 5 mM NaOH, 10 mM D-glucose, 2 mM L-glutamine, 100 μM hypoxanthine, […] gentamicin sulfate, 5% human serum and 5% albumax-II and 2% haematocrit erythrocytes. When required, cultures were synchronised to ring stages using the sorbitol lysis method. Preliminary cytotoxicity screening was assessed using HepG2 cells. These cells were maintained in vitro at 37 °C with 5% (v/v) CO2 in DMEM (Sigma) pH 7 supplemented with 10% FBS, 100 U/mL penicillin (Lonza) and 100 μg/mL streptomycin (Lonza), as previously described. The human monocyte cell line THP-1 [68] was maintained in vitro by culturing at 37 °C with 5% (v/v) CO2 in complete RPMI medium (Dutch modified RPMI-1640 (Gibco) containing 10% FBS and 2 mM L-glutamine (Gibco)). Differentiation of THP-1 cells into macrophages was performed by seeding 2.5 × 10^5 cells/mL in complete RPMI media, supplemented with 20 ng/mL phorbol 12-myristate 13-acetate (PMA), followed by incubation at 37 °C with 5% (v/v) CO2 for 24 h.
(§3) The library was provided as 634 non-polar compounds (1 mg/mL in DMSO). Initial screening was performed in a 96-well plate with 200 μL of parasite culture. The initial screen used each compound at a final concentration of 2 μM for L. mexicana axenic amastigotes, T. brucei and P. falciparum, and at 1 μM for T. evansi. L. mexicana axenic amastigotes were plated at 1 × 10^6 cells/mL, incubated for 72 h, and the Alamar Blue assay was used to assess parasite growth. Each compound was tested in triplicate, with two biological replicates (n = 6). T. brucei and T. evansi were plated at 1×10^5 cells/mL for 48 h, and the Alamar Blue assay was used to assess parasite growth. Each compound was tested in triplicate with two biological replicates (n = 6). Intraerythrocytic P. falciparum in the trophozoite stage were seeded at 0.5% parasitaemia and 2% haematocrit for 48 h, and the Malaria SYBR-Green I fluorescence assay was used to assess parasite growth. Each compound was tested in duplicate with two biological replicates (n = 4). Negative controls comprised an equivalent volume of DMSO (equivalent of 1% v/v) to normalise the growth data. Data points >100% growth and <0% growth were tabulated as 100% and 0%, respectively. Some compounds were not tested in all parasite lines as there was insufficient material remaining.

[4] = system: P. falciparum Dd2Luc intraerythrocytic trophozoites; assay: Initial screen, intraerythrocytic P. falciparum, Malaria SYBR-Green I fluorescence assay; assay type: cell-based, Plasmodium falciparum; settings: for activity at 2 µM: Plasmodium falciparum
Experimental: as §1, with “≥50%. […]” for “≥50%.”
as §3, with “The PhytoQuest Phytopure library is a commercially available collection of purified compounds isolated predominantly from temperate zone plants, with structures confirmed by NMR and mass spectrometry. The library” for “The library”

[5] = system: T. evansi; assay: Concentration-response EC50, T. evansi; assay type: cell-based; settings: Trypanosoma evansi, 48 h, read-out: T. evansi EC50
Excerpt: Initial hits from the parasite panel screen were taken forward in log concentration versus normalised response assays to estimate the half maximal effective concentration (EC50) in hit species as well as the half maximal cytotoxic concentrations (CC50) in the human hepatoma cell line HepG2 as a preliminary test for selectivity. Using CC50/EC50 to define the selectivity index (SI), the selectivity for each compound in a defined species compared to a human cell line was estimated and compared to the EC50 (Figure 3).
EC50 values were determined by serial two-fold dilution of each compound in 96 well plates. Culture conditions and viability assays were as stated for the initial screen, with some exceptions. L. mexicana and L. donovani axenic amastigotes were seeded at 2 × 10^6 cell/s mL, T. brucei and T. evansi were seeded at 2 × 10^5 cells/mL. For cytotoxicity studies, HepG2 cells were seeded at 1 × 10^5 cells/mL, incubated for 48 h and viability was assessed using the Alamar Blue assay [66, 67]. […] Normalised growth and viability data (compared to untreated controls) were plotted against Log10 concentration to estimate EC50 in GraphPad (Prism v6).

[6] = system: T. evansi bloodstream form; assay: Initial screen, T. evansi bloodstream form, Alamar Blue; assay type: cell-based, Trypanosoma evansi; settings: Trypanosoma evansi; for activity at 1 µM: initial screen; for inhibition of growth at 1 µM: read-out: initial hit T.e
Experimental: as §1, §2, §3

[7] = system: L. mexicana axenic amastigotes; assay: Initial screen, L. mexicana axenic amastigotes, Alamar Blue; assay type: cell-based, Leishmania mexicana; settings: for activity at 2 µM: Leishmania mexicana; for decrease of L. mexicana survival: 2 μM, 72 h
Experimental: as §1, with “≥50%. […]” for “≥50%.”
as §3, with “The PhytoQuest Phytopure library is a commercially available collection of purified compounds isolated predominantly from temperate zone plants, with structures confirmed by NMR and mass spectrometry. The library” for “The library”

[8] = 48 h, read-out: %growth P. falciparum, mean % growth compared to a normalised control with same concentration of DMSO solvent, initial screen
[9] = mean % growth compared to a normalised control with same concentration of DMSO solvent, read-out: % growth T. evansi
[10] = read-out: % growth L. mexicana, mean % growth compared to a normalised control with same concentration of DMSO solvent, initial screen
[11] = mean % growth compared to a normalised control with same concentration of DMSO solvent, initial screen

`CCCCCCCCCCCCCCCCOP(=O)([O-])OCC[N+](C)(C)C` [Miltefosine, reference compound] was tested, and the “r22 28 weeks RI (resistance index, EC50 in r22/EC50 in WT)” value [1] was 17.9, the EC50 [1] was 20 µM and the EC50 ([2]; read-out: WT EC50, L. mexicana WT axenic amastigotes) was 1.1 µM.

For `C[C@@H]1[C@H](O)[C@@H](C)/C=C/C=C/C=C/C=C/C=C/C=C/C=C/[C@H](O[C@@H]2O[C@H](C)[C@@H](O)[C@H](N)[C@@H]2O)C[C@@H]2O[C@](O)(C[C@@H](O)C[C@@H](O)[C@H](O)CC[C@@H](O)C[C@@H](O)CC(=O)O[C@H]1C)C[C@H](O)[C@H]2C(=O)O` [Amphotericin B, reference compound], the EC50 [1] was 0.28 µM.

In the case of `CC(C)c1cc(CCC2C(=O)CCCC2(C)C)c(O)cc1O` (stereo not shown) [Compound 700454], the activity at 2 µM ([3]; compared to a normalised control with same concentration of DMSO solvent, read-out: mean % growth, T. b. brucei) is reported as 77.3%, the “reduction of P. falciparum growth” value ([4]; 2 μM, 48 h, Dd2Luc) is reported as 5% and the activity at 2 µM ([4]; 48 h, read-out: mean % growth, P. falciparum, initial screen, compared to a normalised control with same concentration of DMSO solvent) is reported as 95.4%. The EC50 ([5]; bloodstream form) was 3.3 µM, the activity at 1 µM ([6]; compared to a normalised control with same concentration of DMSO solvent, read-out: mean % growth, T. evansi) was 43.7% and the inhibition of growth at 1 µM ([6]; 1 μM, x = initial hit) was over 50%. It also gave an activity at 2 µM ([7]; read-out: mean % growth, L. mexicana, initial screen, compared to a normalised control with same concentration of DMSO solvent) of 47.9%.

With `N=C(N)c1ccc(OCCCCCOc2ccc(C(=N)N)cc2)cc1` [Pentamidine, reference compound] the “r22 28 weeks RI (resistance index, EC50 in r22/EC50 in WT)” value [1] was 0.75, the EC50 [1] was 5.1 µM and the EC50 ([2]; L. mexicana WT axenic amastigotes, read-out: WT EC50) was 6.8 µM.

`CC(C)=CCc1c(O)cc2oc(-c3ccc(O)c(O)c3)c(O)c(=O)c2c1O` [Compound 700326] was tested, and the activity at 2 µM [4, 8] was 63.1%, the EC50 ([5]; bloodstream form) was 1.8 µM and the activity at 1 µM [6, 9] was 34.7%. The inhibition of growth at 1 µM ([6]; 1 μM, x = initial hit) was over 50% and the activity at 2 µM [7, 10] was 27%.

For `CC(=O)OC1C(O)C(C)OC(OC2C(OC(=O)C3CC[C@@H]4[C@H](C3)OC3(CC(OC(=O)/C=C/c5ccccc5)[C@@H](C)CO3)C43CO3)OC(CO)C(O)C2OC(C)=O)C1O` (stereo partly shown) [Compound 700063], the “% growth T. b. brucei” value ([3]; mean % growth compared to a normalised control with same concentration of DMSO solvent) was 95.6%, the “activity against P. falciparum in screen” value ([4]; 2 μM) was “neither 700014 or 700063 showed activity against P. falciparum” and the “%growth P. falciparum” value [4, 11] was 104.8%. For the same compound, the EC50 [5] was over 10 µM, the activity at 1 µM ([6]; read-out: % growth T. evansi, mean % growth compared to a normalised control with same concentration of DMSO solvent) was 44.5% and the inhibition of growth at 1 µM [6] was over 50%. The “decrease of L. mexicana survival” value [7] was about 70% and the “% growth L. mexicana” value [7, 11] was 70.5%.

`CC1=CC(CC(C)C2CCC3(C)C4=CCC5C(C)(C)C(=O)CCC5(C)C4CCC23C)OC1=O` (stereo not shown) [Compound 700016] showed an activity at 2 µM ([3]; mean % growth compared to a normalised control with same concentration of DMSO solvent, read-out: % growth T. b. brucei) of 75.7%, an activity at 2 µM [4, 8] of 104% and an EC50 ([5]; bloodstream form) of over 3 µM. For the same compound, the activity at 1 µM [6, 9] was 40.5%, the inhibition of growth at 1 µM ([6]; 1 μM, x = initial hit) was over 50% and the “decrease of L. mexicana survival” value [7] was “more than 50%”. It also gave an activity at 2 µM [7, 10] of 47.1%.
